Test results from article PMC11077991, “The small molecule CBR-5884 inhibits the Candida albicans phosphatidylserine synthase” (mBio, 2024).
In brackets after ≈: the same amount, converted by molar mass. Several values for one entry are separate records, joined by “and”; a condition that tells them apart may be missing. Equal entries are not always repeated. Where two headings read alike, the source gives them in different places.

B1: Candida albicans phosphatidylserine synthase Cho1 (enzyme, UniProt A0A1D8PF32 1-273, looked up)
chain: MSDSSATGFSKHQESAIVSDSEGDAIDSELHMSANPPLLRRSSSLFSLSSKDDLPKPDSKEYLKFIDDNRHFSMIRNLHMADFITLLNGFSGFYSIISCLRYTLTGQTHYVQRAHFFILLGLFFDFFDGRVARLRNKSSLMGQELDSLADLVSFGVSPATIAFAIGFRTTVDVLFLAFWVLCGLTRLARFNISVNNIPKDKHGKSQYFEGLPIPTNLFWVGFMALLVYKDWIHDNLPFGIVFQDTSFEFHLVTIGFVLQGCAEISKSLKIPKP
notes: Cho1, phosphatidylserine synthase (EC 2.7.8.8) of Candida albicans, CHO1 gene expressed from the TEF1 promoter; A TEV site (ENLYFQG) lies between Cho1 and the HAx3-HISx8 tag; The forward cloning primer begins at the ATG of CHO1; also called PS synthase; CDP-diacylglycerol-serine O-phosphatidyltransferase; not shown: HAx3, C-terminal, cleaved; His8, C-terminal, cleaved

Assays:
[1] = target: purified C. albicans Cho1 (phosphatidylserine synthase) (Candida albicans, UniProt A0A1D8PF32); assay: malachite-green-based nucleotidase-coupled assay, dose-response; format: biochemical; settings: top 200 µM, 3 h at 30°C, three replicates
Description: A malachite-green-based nucleotidase-coupled assay was used to measure the PS synthesis activity of Cho1 (Fig. 1B). Cho1 catalyzes the production of PS and cytidylmonophosphate (CMP) from CDP-DAG and serine, where CMP can then be recognized and cleaved by the nucleotidase CD73 to release inorganic phosphate, which is subsequently detected by malachite green. To test whether this malachite-green-based assay can reflect Cho1 activity, a time-course test was performed with a fixed amount of purified Cho1 in the presence of substrates (Fig. 1C).
The bioactives library was purchased from Selleck in 2014, and the remaining libraries (anti-infectives and mechanism of action libraries) were assembled from compounds available at the Chemical Biology and Therapeutics Department at St. Jude Children’s Research Hospital. The anti-infectives library contains a curated list of antimicrobials and antiviral agents ([95]). The bioactive library has a compilation of compounds acquired from commercial sources and external academic collaborators. The mechanism of action set is a dynamic set of well-annotated compounds with comprehensive coverage of human targets and mechanisms of action ([96]). All compounds were dissolved in DMSO and 100 nL was transferred to a 384-well clear bottom plate (ThermoFisher Scientific, cat# 265203) using a Beckman Echo 650 acoustic liquid handler. Equal volumes of either the selective CD73 nucleotidase inhibitor AB680 at a final concentration of 1 µM (MedChemExpress, cat# HY-125286) or DMSO were used as positive and negative controls, respectively. A total of 30–35 ng of purified Cho1 protein was used in each reaction in 50 mM Tris-HCl (pH 8.0) for primary screening, combined with 100 µM CDP-DAG (Avanti, cat# 870510), 5 mM serine, 0.4 ng CD73 nucleotidase (R&D systems, cat# EA002), 1 mM MnCl2, 0.1% APX-100, and 0.1% digitonin, in a total volume of 10 µL. Counter screen reactions were set up by replacing only the purified Cho1 with 150 µM CMP, with all other components remaining constant. The 10 µL primary and counter screening reactions were delivered to each well of 384-well assay plates containing pre-aliquoted compounds from the library using a Multidrop Combi (ThermoFisher Scientific). […] After media transfer, assay plates were incubated for 3 h at 30°C. Plates were then removed and 32 µL of malachite green mixture [6 µL malachite A (2%, wt/vol, ammonium molybdate and 20%, vol/vol, sulfuric acid in H2O) +20 µL H2O + 6 µL malachite B (0.1%, wt/vol, malachite green oxalate and 0.5%, wt/vol, polyvinyl alcohol in H2O)] were added to each well via a MultiDrop Combi and incubated for an additional 10 min at room temperature. After incubation, plates were briefly centrifuged at 500 × g and absorbance at 620 nm was then measured using a Cytation7 plate reader (Biotek, Winooski, VT). Raw absorbance values of the compounds were normalized to DMSO (0% inhibition) and AB680 (100% inhibition) from both primary and counter screens, and % Δinhibition was calculated by […]. Z-factors for each plate were calculated using the in-house program RISE (Robust Investigation of Screening Experiments). All non-PAINs compounds that had >80% Δinhibition progressed to dose-response testing (82 total compounds). Dose-response experiments were performed in triplicate as described above using a 10-point, threefold serial dilution with the top concentration for each compound tested being 200 µM (range: 0.010161–200 μM). The absorbance at 620 nm was then measured using a PHERAstar FS multilabel reader (BMG, Cary, NC). Raw values were once again normalized to DMSO (0% inhibition) and AB680 (100% inhibition) and Z-factors for each plate were calculated using RISE. […]

[2] = system: wild-type C. albicans strain SC5314; assay: CLSI MIC broth microdilution; format: cell-based, Candida albicans; settings: for MIC: Candida albicans; for effect on cell growth in all three media: even at 250 µM
Description: We then tested the effects of the six compounds on live cells by determining the minimal inhibitory concentrations (MICs) of these compounds. Following the standard Clinical & Lab Standards Institute (CLSI) MIC broth microdilution methods, wild-type C. albicans strain SC5314 was grown with avasimibe, CBR-5884, tideglusib, ebselen, ML-345, and LOC14 in RPMI MOPS medium (pH 7.0) or alternatively in minimal medium or minimal medium with HEPES (pH 7.0) at 37°C for 48 h, along with a cho1ΔΔ strain as a control (Fig. 3A through C). The concentration of the compounds was varied from 0.5 to 250 µM. […] Ebselen, LOC14, and CBR-5884, on the contrary, stopped cell growth at different concentrations in all three media, with MICs ranging between 7.8 and 31.3 μM (Fig. 3A through D). […] Specific MIC values are summarized in Fig. 3D for all the compounds.
Minimum inhibitory concentration (MIC) was determined following Clinical & Lab Standards Institute (CLSI) MIC broth microdilution protocol (Licensed to Todd Reynolds, license # Ord-1138682) ([98], [99]). Briefly, stock solutions of different compounds (purchased from MedChemExpress) were prepared at a concentration of 10 mM in DMSO and subsequently diluted as required in the same solvent. Wild-type C. albicans strain SC5314, as well as four additional wild-type strains—GDH2346, 3153A, TFPY412, and TFPY2307, were cultured overnight in YPD medium at 30°C, washed with water three times, and then diluted to a concentration of 2 × 10^3 cells/mL (OD600 = 0.00008) in one of the three media [minimal medium, minimal medium buffered with 50 mM HEPES (pH 7.0) and RPMI MOPS (pH 7.0)]. The cho1ΔΔ strain was also included as a control. A volume of 100 µL from each cell suspension was dispensed into the wells of a flat-bottom 96-well plate. An additional 100 µL of corresponding medium, containing twice the final desired concentration of each drug, was added to each well, leading to a final initial inoculum of 1 × 10^3 cells/mL (OD600 = 0.00004). The final DMSO concentration was maintained at 2.5% across all treatments. Following preparation, the plates were incubated at 37°C for 48 h and photos were taken with a Bio-Rad Gel Doc XR + Imaging System.

[3] = precipitation in MIC media; format: physicochemical
[4] = target: the molecule itself; assay: native gel or EMSA; blue native PAGE of purified tag-free Cho1 in digitonin, stained with Coomassie Blue R-250; MW estimated with the band analysis tool of Quantity One
[5] = 10-point dose-response, read-out: Best-fit IC50, inhibition of Cho1
[6] = SC5314, RPMI MOPS pH 7.0, 37°C, 48 h, read-out: Minimal Inhibitory Concentration (MIC): RPMI, MOPS 7.0
[7] = SC5314, minimal medium with 50 mM HEPES pH 7.0, 37°C, 48 h, read-out: Minimal Inhibitory Concentration (MIC): MM, HEPES 7.0
[8] = SC5314, minimal medium, 37°C, 48 h, read-out: Minimal Inhibitory Concentration (MIC): MM

Row | Molecule | IC50 [1, 5] | MIC [2, 6] [µM] | MIC [2, 7] [µM] | MIC [2, 8] [µM] | effect on cell growth in all three media [2] | other results
1 | CC(C)c1cc(C(C)C)c(CC(=O)NS(=O)(=O)Oc2c(C(C)C)cccc2C(C)C)c(C(C)C)c1 [Avasimibe] | ~23.4 µM | > 500 | > 500 | > 500 | did not affect cell growth | solubility in MIC media [3]: precipitated at high concentrations
2 | O=c1c2cc(F)ccc2sn1-c1cc(S(=O)(=O)N2CCOCC2)ccc1N1CCOCC1 [ML-345] | ≤ 20 µM and ~15.5 µM |  |  |  |  | MIC ([2]; SC5314, 48 h, pH 7, read-out: Minimal Inhibitory Concentration (MIC): MM, HEPES 7.0): > 500 µM; MIC ([2]; SC5314, 48 h, pH 7, read-out: Minimal Inhibitory Concentration (MIC): RPMI, MOPS 7.0): 31.3 µM (≈ 15 µg/mL); MIC ([2]; SC5314, 48 h, read-out: Minimal Inhibitory Concentration (MIC): MM): > 500 µM; effect on cells grown in the minimal media ([2]; minimal media): had no effect
3 | c1ccc(Nc2nc3c(s2)CCCc2[nH]ncc2-3)nc1 [TC-N 22A] | ~65.3 µM |  |  |  |  | 
4 | O=c1sn(-c2cccc3ccccc23)c(=O)n1Cc1ccccc1 [Tideglusib] |  | > 500 | > 500 | > 500 | did not affect cell growth | IC50 ([1]; Best-fit IC50, inhibition of Cho1, 10-point dose-response): ≤ 20 µM and ~8.53 µM; solubility in MIC media ([3]; concentrations 0.5 to 250 µM): precipitated at high concentrations
5 | B1 |  |  |  |  |  | stoichiometry N [4]: 6
